Assay [1] addresses T1, Peroxisome proliferator-activated receptor gamma (Homo sapiens) (UniProt P37231).
T1 sequence (whole entry): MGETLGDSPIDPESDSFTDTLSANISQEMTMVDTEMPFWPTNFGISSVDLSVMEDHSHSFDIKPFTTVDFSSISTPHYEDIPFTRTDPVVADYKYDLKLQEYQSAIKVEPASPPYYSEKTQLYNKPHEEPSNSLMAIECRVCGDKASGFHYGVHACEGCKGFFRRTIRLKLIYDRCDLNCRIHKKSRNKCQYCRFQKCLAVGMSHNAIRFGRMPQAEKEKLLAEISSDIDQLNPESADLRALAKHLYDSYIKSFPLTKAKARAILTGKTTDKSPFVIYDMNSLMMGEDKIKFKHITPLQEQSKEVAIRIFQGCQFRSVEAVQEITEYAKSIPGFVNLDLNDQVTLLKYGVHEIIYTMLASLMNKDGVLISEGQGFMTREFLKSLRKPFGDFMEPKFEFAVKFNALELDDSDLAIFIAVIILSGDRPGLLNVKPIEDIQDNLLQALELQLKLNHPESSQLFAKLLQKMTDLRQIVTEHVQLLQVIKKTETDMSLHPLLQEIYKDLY
The assay is described as follows: Partial agonist activity at PPARgamma (unknown origin) assessed as induction of receptor transactivation at 0.1 to 10 uM relative to 10 uM pioglitazone.

Assay [2] addresses T1, Peroxisome proliferator-activated receptor gamma (Homo sapiens). The assay is described as follows: Antagonist activity at PPARgamma (unknown origin) assessed as inhibition of 10 uM pioglitazone-induced receptor transactivation at 0.1 to 10 uM.

Each structure is given as a SMILES string. Calls of active or inactive are those of the source. No cut-off for these calls is given here.

Consider `CCCOc1ccc(C(=O)NS(=O)(=O)Cc2ccccc2)cc1CNC(=O)c1ccc(-c2ncccn2)cc1`, for which the outcome in assay [1] was Active. Also, the inhibition result in assay [2] is “Dose-dependent effect”.

These data come from ChEMBL document CHEMBL3588857, “Peroxisome proliferator-activated receptor gamma (PPARγ) has multiple binding points that accommodate ligands in various conformations: Structurally similar PPARγ partial agonists bind to PPARγ LBD in different conformations” (Bioorg Med Chem Lett, 2015).
